Measurements from patent US6455578B1, “Aromatic derivatives and iron complexes thereof for the use as normalizing agents of the iron level” (Laboratoire Medidom S.A., priority 1998, dated 2002).
Values belong to the compound of their own block, whether it stands above or below them.

Columns and labels:
[1] = In vivo tests on permeation of rat erythrocytes / detection in rat tissues and excretion; conditions: for Qualitative detection in Erythrocytes / Qualitative detection in Plasma / Qualitative detection in Brain / Qualitative detection in Liver / Qualitative detection in Urine: rat, single oral dose 20 mg per Kg
Description: The tests are performed on male rats Sprague-Dawley weighting from 250 to 300 g.
The chelating agent 3-hydroxy-2-methyl-4H-1-benzopyran-4-one prepared as in Example 1, vehiculated by 4 parts of β-cyclodextrine for each part of chelating agent, is administered to the rats in a single oral dose comprising 20 mg of chelating agent per Kg of body weight.
The chelating agent 3-hydroxy-2-(5-hydroxypentyl)-4H-1-benzopyran-4-one prepared as in Example 3 is administered to the rats in a single oral dose, comprising 2% of methyl cellulose and 20 mg of chelating agent per Kg of body weight.

[2] = Partition test between n-octanol and aqueous solution pH 7.4; type: physicochemical; conditions: for partition between n-octanol and aqueous solution (result in words): n-octanol / aqueous 20 mM tris(hydroxymethyl)aminomethane chlorhydrate pH 7.4, Example 7: concentration 100 mM
Description: In particular, partition experiments have been carried out between n-ottanol and an aqueous solution 20 mM of tris(hydroxymethyl)aminomethane chlorohydrate brought to pH=7.4 by adding sodium phosphate, obtaining values of the ripartition coefficient, expressed as the ratio between the concentration of the compound in the organic phase and that in the aqueous phase, tipically higher than 20, for the present formula (I) compounds as well as for the Fe (III) complexes thereof.
The partition coefficient between n-octanol and an aqueous solution 20 mM of tris(hydroxymethyl)aminomethane brought to pH=7.4 by the addition of sodium phosphate has been determined by spectrophotometry at room temperature for 3-hydroxy-2-methyl-4H-1-benzopyran-4-one and for the related Fe(III) complex.
In the aqueous solution the 3-hydroxy-2-methyl-4H-1-benzopyran-4one obtained as described in Example 1 was dissolved in the quantity sufficient to have a concentration equal to 10^−4 M. 5 ml of said solution were centrifuged with 5 ml of n-octanol, and the two resulting phases were separated for a concentration determination on each by spectrophotometry.
The partition coefficient, expressed as the ratio between the concentration of the compound in n-octanol and its concentration in the aqueous solution, resulted 24. In the same aqueous solution above described the Fe(III) complex obtained as in Example 4 was dissolved, in the sufficient quantity to obtain a concentration equal to 2×10^−4 M. 5 ml of said solution are centrifuged with 5 ml of n-octanol, then the two resulting phases were separated for a concentration determination on each by spectrophotometry. A partition coefficient equal to 25 was obtained.
According to the procedure described in Example 6 partition data were determined between n-octanol and an aqueous solution 20 mM of tris(hydroxymethyl)aminomethane chlorhydrate brought to pH 7.4 by addition of sodium phosphate, for 3-hydroxy-2-(5-hydroxypentyl)-4H-1-benzopyran-4-one prepared as in Example 3 as well as for the related Fe(III) complex prepared as in Example 5.
In the aqueous solution 3-hydroxy-2-(5-hydroxypentyl)-4H-1-benzopyran-4-one as prepared in Example 3 was dissolved so to obtain a concentration equal to 100 mM. 5 ml of said solution were centrifuged with 5 ml of n-octanol, then the two resulting phases, the aqueous and the organic one, were separated for a concentration determination on each by spectrophotometry.
The same experiment was repeated by dissolving the Fe(III) complex prepared as in Example 5 in the above described aqueous solution.

[3] = In vivo tests on permeation of rat erythrocytes / detection in rat tissues and excretion; conditions: rats, 20 mg per Kg in DMSO by intraperitoneal route; 15, 30 and 60 minutes after treatment
erythrocytes = test: In vitro tests on permeation into erythrocytes; type: in vitro ADME, rat; conditions: for found in the aqueous medium containing the phosphate buffer after resuspension of loaded erythrocytes: loaded erythrocytes resuspended in fresh buffer; for found in the aqueous medium containing the phosphate buffer after resuspension of loaded erythrocytes / found in the plasmatic medium after resuspension of loaded erythrocytes / distribution between previously overloaded erythrocytes and the aqueous medium of resuspension: further 30 minutes at 37 C; for found in the plasmatic medium after resuspension of loaded erythrocytes: loaded erythrocytes resuspended in their plasma; for distribution between previously overloaded erythrocytes and the aqueous medium of resuspension: loaded erythrocytes resuspended in fresh plasma or fresh buffer; for time in which a balance between intracellular and extracellular environment is reached: rat erythrocytes
Description: Solutions of 3-hydroxy-2-methyl-4H-1-benzopyran-4-one prepared as in Example 1 and the related Fe(III) complex obtained in acetone as in Example 4 were used for suitable sampling in incubation flasks. For the complex acetone is evaporated, and the biologic samples are then added to the residue. Whole blood of rat deprived of leucocytes, or alternatively erythrocytes washed and resuspended in 127 mM of sodium phosphate 50% buffer (pH=7.4) and containing 23 mM of NaCl, were added into the incubation flasks and incubated at 37° C. for 15 and respectively 30 minutes.
At those times erythrocytes were separeted by centrifugation and separately extracted together with the supernatants with 2 volumes of ethyl acetate. The related quantities of the tested substances were measured by spectrophotometry in ethyl acetate and compared with suitable standards. After 30 minutes of incubation the 3-hydroxy-2-methyl-4H-1-benzopyran-4-one as well as the related Fe(III) complex were found in the erythrocytes for 51% and for 49% in the aqueous medium. After 30 minutes of incubation 50% of the sedimented erythrocytes are resuspended in their fresh plasma and the remaining 50% in fresh buffer.
Erhytrocytes of rat were separated from their plasma deprived of leucocytes. Part of the erythrocytes were resuspended in sodium phosphate 50% buffer (pH=7.4), and another part of the erythrocytes were joined to part of their plasma so to obtained a 50% hematocrit. To both suspensions were added alternatively 100 mg/l of 3-hydroxy-2-(5-hydroxypentyl)-4H-benzopyran-4-one prepared as in Example 3 and 50 mg/l of the related Fe(III) complex prepared as in Example 5, and the incubation was made at 37° C. After 30 minutes the erythrocytes were separated by centrifugation and extracted separately together with supernatants with ethyl acetate. The quantities of the tested substances were measured by spectrophotometry in ethyl acetate and compared to suitable standards.
After 30 minutes incubation the 40% of 3-hydroxy-2-(5-hydroxypenthyl)-4H-1-benzopyran-4-one, as well as of the ferric complex thereof, were found in the erythrocytes and the remaining 60% in the medium represented by plasma. When the medium is the phosphate buffer the 60% of the tested compounds were found in erythrocytes and the remaining 40% in the medium.
After sedimentation 50% of the erythrocytes containing the tested compounds was resuspended in their plasma and the remaining 50% in fresh buffer. After a further 30 minutes incubation at 37° C. 60% of 3-hydroxy-2-(5-hydroxypentyl)-4H-1-benzopyran-4-one and of the related complex were found in the plasmatic medium and the remaining 40% in the aqueous medium containing the phosphate buffer. Therefore the chelating agent as well as the related ferric complex do permeate into cellular membranes in both directions, and are uniformly distributed in the intracellular and in the extracellular environment.

[4] = Stability constant of the Fe(III) complex by cyclic voltammetry; type: physicochemical
Description: wherein R5 is CH3, has been measured by voltammetry with a Pt electrode as the working electrode and with a calomel electrode as the reference electrode, obtaining a stability constant equal to 3.0×10^10.
The complexation cynetics has been moreover studied by cyclic voltammetry with a Pt electrode as the working electrode and a calomel electrode as the reference electrode, in the following conditions:ferric perchlorate (7 mg) is dissolved in 20 ml of a NaCl solution 150 mM containing 5% of DMSO, and this solution is put into the voltammetric cell for the plot registration; from this plot the half-wave potential for the ferric salt can be deduced: (E½)s Fe^3+/Fe^2+=0.420 V.
3-hydroxy-2-methyl-4H-1-benzopyran-4-one (10.5 mg) is dissolved in DMSO (3 ml), and with the so obtained solution 4 additions are made to the voltammetric cell, registering the cyclic voltammetric plot after every addition. […]
The stability constant of the complex is calculated according to the following formula: [formula]
wherein (E½)s e (E½)c are the half-wave potential of the salt and, respectively, of the complex above reported, n is the number of electrons, β is the stability constant of the complex and c is its concentration, and p is the number of chelating agent molecules in the complex. The so calculated value of the stability constant is […].

[5] = medium phosphate buffer pH 7.4, 37 C, 30 minutes, 100 mg/l ligand or 50 mg/l complex
[6] = medium plasma, 50% hematocrit, 37 C, 30 minutes, 100 mg/l ligand or 50 mg/l complex
[7] = male Sprague-Dawley rats, single oral dose 20 mg per Kg with beta-cyclodextrine
[8] = rat whole blood deprived of leucocytes or washed erythrocytes in phosphate buffer pH 7.4, 37 C, 30 minutes incubation

presence in urine ([1]; male Sprague-Dawley rats, single oral dose 20 mg per Kg in 2% methyl cellulose, 12, 24 and 48 hours from administration): has been revealed | presence in plasma ([1]; rats, 20 mg per Kg in DMSO by intraperitoneal route, 15, 30 and 60 minutes after treatment): has been revealed | partition between n-octanol and aqueous solution (result in words) [2]: completely pass in the alcoholic phase | presence in erythrocytes [3]: has been revealed | melting point: 111 to 112 °C | found in the aqueous medium containing the phosphate buffer after resuspension of loaded erythrocytes (erythrocytes): 40% | found in the plasmatic medium after resuspension of loaded erythrocytes (erythrocytes): 60% | found in erythrocytes (erythrocytes; [5]): 60% | found in the medium (erythrocytes; [5]): 40% | found in the erythrocytes (erythrocytes; [6]): 40% | found in the medium (erythrocytes; [6]): 60%
Compound: O=c1c(O)c(CCCCCO)oc2ccccc12 [3-hydroxy-2-(5-hydroxypentyl)-4H-1-benzopyran-4-one]

presence in urine (onset) [1, 7]: starting from twenthyfourth hour | time of maximum presence (erythrocytes, brain and liver) [1, 7]: maximum in the fourth hour | presence in erythrocytes, brain and liver (first detection) ([1]; male Sprague-Dawley rats, single oral dose 20 mg per Kg with beta-cyclodextrine, spectrophotometry and fluorimetry): found already in the first hour | Qualitative detection in Erythrocytes ([1]; 1/2 hr after administration): p(+) | Qualitative detection in Plasma ([1]; 1/2 hr after administration): p(+) | Qualitative detection in Brain ([1]; 1 hr after administration): p(+) | Qualitative detection in Erythrocytes ([1]; 1 hr after administration): p(++) | Qualitative detection in Liver ([1]; 1 hr after administration): p(+) | Qualitative detection in Plasma ([1]; 1 hr after administration): p(++) | Qualitative detection in Brain ([1]; 4 hr after administration): p(++) | Qualitative detection in Erythrocytes ([1]; 4 hr after administration): p(+++) | Qualitative detection in Liver ([1]; 4 hr after administration): p(+++) | Qualitative detection in Plasma ([1]; 4 hr after administration): p(++) | Qualitative detection in Urine ([1]; 4 hr after administration): p(+) | Qualitative detection in Brain ([1]; 24 hr after administration): p(++) | Qualitative detection in Liver ([1]; 24 hr after administration): p(++) | Qualitative detection in Urine ([1]; 24 hr after administration): p(++) | Qualitative detection in Urine ([1]; 48 hr after administration): p(+++) | logD ([2]; n-octanol / aqueous 20 mM tris(hydroxymethyl)aminomethane pH 7.4, room temperature, spectrophotometry, ligand 10^-4 M, complex 2x10^-4 M, read-out: partition coefficient (concentration in n-octanol / concentration in aqueous solution) (converted)): 1.38 | melting point: 179 to 180 °C | distribution between previously overloaded erythrocytes and the aqueous medium of resuspension (erythrocytes): equally distributed | time in which a balance between intracellular and extracellular environment is reached (erythrocytes; 37 C): ca. 30 minutes | found in the aqueous medium (erythrocytes; [8]): 49% | found in the erythrocytes (erythrocytes; [8]): 51%
Compound: Cc1oc2ccccc2c(=O)c1O [3-hydroxy-2-methyl-4H-1-benzopyran-4-one]

partition between n-octanol and aqueous solution (result in words) [2]: completely pass in the alcoholic phase | found in the aqueous medium containing the phosphate buffer after resuspension of loaded erythrocytes (erythrocytes): 40% | found in the plasmatic medium after resuspension of loaded erythrocytes (erythrocytes): 60% | found in erythrocytes (erythrocytes; [5]): 60% | found in the medium (erythrocytes; [5]): 40% | found in the erythrocytes (erythrocytes; [6]): 40% | found in the medium (erythrocytes; [6]): 60%
Compound: Fe(III) complex of 3-hydroxy-2-(5-hydroxypentyl)-4H-1-benzopyran-4-one

Compound: Fe(III) complex of 3-hydroxy-2-methyl-4H-1-benzopyran-4-one
partition coefficient (concentration in n-octanol / concentration in aqueous solution) ([2]; n-octanol / aqueous 20 mM tris(hydroxymethyl)aminomethane pH 7.4, room temperature, spectrophotometry, ligand 10^-4 M, complex 2x10^-4 M): 25 | half-wave potential of the complex (E1/2) Fe3+/Fe2+ ([4]; cyclic voltammetry, after first addition of 0.5 ml chelating agent solution in DMSO): 0.120 V | stability constant of the Fe(III) complex ([4]; voltammetry, Pt working electrode, calomel reference electrode, NaCl 150 mM containing 5% DMSO): 3.0×10^10 | distribution between previously overloaded erythrocytes and the aqueous medium of resuspension (erythrocytes): equally distributed | time in which a balance between intracellular and extracellular environment is reached (erythrocytes; 37 C): ca. 30 minutes | found in the aqueous medium (erythrocytes; [8]): 49% | found in the erythrocytes (erythrocytes; [8]): 51%
